Assay results: patent US20230175066A1, “ANALYSIS/DIAGNOSIS METHOD UTILIZING RNA MODIFICATION” (OSAKA UNIVERSITY, priority 2018, published 2023)

Legend:
[1] = test system: trifluridine resistant strain of cancer cell strain DLD-1; experiment: IC50 for trifluridine in the trifluridine resistant strain prepared from DLD-1; assay type: cell-based; conditions: Homo sapiens; DLD-1 after maintenance culture for 6 months or more in the presence of trifluridine (about 10 mg/mL)
Description: The cancer cell strain DLD-1 obtained from a cell bank such as ATCC or RIKEN was subjected to maintenance culture for 6 months or more in the presence of trifluridine (FTD) (Aldrich-Sigma) (about 10 mg/mL). The maintenance culture was subcultured about twice a week to maintain 60 to 80% confluence at 37° C. in a serum 10% added DMEM medium on a plastic dish.

[2] = test system: DLD-1 cell strain, 5-FU resistant strain, FTD resistant strain; parameters: methylation on microRNA, FTD resistant strain / miRNA methylation, FTD resistant strain: unit not given here; conditions: for Rate of change, FTD resistance (fold) / Rate of change, FTD (fold): FTD resistant versus parental strain; for methylation on microRNA, FTD parental strain / methylation on microRNA, FTD resistant strain: RIP sequencing; for methylation on microRNA, FTD parental strain: DLD-1, FTD parental strain; for methylation on microRNA, FTD resistant strain: DLD-1 FTD resistant strain; for miRNA methylation, FTD parental strain / miRNA methylation, FTD resistant strain: miRNAs that decrease post-surgery
Description: For an original DLD-1 cell strain and each resistant strain (5-FU resistant strain and FTD resistant strain), RNA methylation analysis in accordance with the protocol for RIP sequencing described above and microarray or mRNA expression analysis similar to the qRT-PCR of Example 2-2 was performed. RIP sequencing and RNA expression information based primary component analysis (two dimensional projection using a component resulting in maximum dispersion) was performed. The results are represented as mean ± standard deviation (SD) based on three independent experiments. The statistical significance of the results was evaluated by pairwise T-TEST using R version 3.4.3 (2017-11-30) on Microsoft Excel® software (Microsoft Campus, Redmond, WA, USA). P value < 0.05 was considered statistically significant. As a result, wild-type strain and each resistant strain was clearly distinguished. […] Total RNA was purified in accordance with the protocol for Trizol (Invitrogen) from the original DLD-1 cell strain and each resistant strain (5-FU resistant strain and FTD resistant strain), and then RNA methylation analysis was performed according to the protocol for RIP sequencing described above. Ribo-Zero rRNA Removal Kit (Illumina) was used for the removal of rNRAs.

| Compound | IC50 [1] [µM] | Rate of change, 5-FU resistance (fold) [2] | methylation on microRNA, 5-FU parental strain [2] | methylation on microRNA, 5-FU resistant strain [2] | Rate of change, FTD resistance (fold) [2] | methylation on microRNA, FTD parental strain [2] | methylation on microRNA, FTD resistant strain [2] | Rate of change 5-FU (fold) [2] | miRNA methylation, 5-FU parental strain [2] | miRNA methylation, 5-FU resistant strain [2] | miRNA methylation, FTD parental strain [2] | miRNA methylation, FTD resistant strain [2] | Rate of change, FTD (fold) [2] [fold] |
| --- | --- | --- | --- | --- | --- | --- | --- | --- | --- | --- | --- | --- | --- |
| O=c1[nH]c(=O)n([C@H]2C[C@H](O)[C@@H](CO)O2)cc1C(F)(F)F [trifluridine] | 300 |  |  |  |  |  |  |  |  |  |  |  |  |
| miR-378d (ACUGGACUUGGAGUCAGAAA; chemistry not fully specified; listed as Homo sapiens) |  | 1.54 fold | 144 | 30 | 0.36 fold | 80 | 63 |  |  |  |  |  |  |
| miR-378e (ACUGGACUUGGAGUCAGGA; chemistry not fully specified; listed as Homo sapiens) |  | 1.64 fold | 11 | 2 | 0.86 fold | 3 | 6 |  |  |  |  |  |  |
| miR-378f (ACUGGACUUGGAGCCAGAAG; chemistry not fully specified; listed as Homo sapiens) |  | 0.67 fold | 3 | 1 | (0.50) fold | 2 | 1 |  |  |  |  |  |  |
| miR-378h (ACUGGACUUGGUGUCAGAUGG; chemistry not fully specified; listed as Homo sapiens) |  | 0.00 fold | 1 | 0 |  | 0 | 0 |  |  |  |  |  |  |
| miR-378i (ACUGGACUAGGAGUCAGAAGG; chemistry not fully specified; listed as Homo sapiens) |  | 0.50 fold | 18 | 1 | 0.33 fold | 6 | 3 |  |  |  |  |  |  |
| miR-492 (AGGACCUGCGGGACAAGAUUCUU; chemistry not fully specified; listed as Homo sapiens) |  |  | 0 | 0 |  | 0 | 0 |  |  |  |  |  |  |
| miR-3122 (GUUGGGACAAGAGGACGGUCUU; chemistry not fully specified; listed as Homo sapiens) |  |  | 0 | 2 |  | 0 | 0 |  |  |  |  |  |  |
| miR-3131 (UCGAGGACUGGUGGAAGGGCCUU; chemistry not fully specified; listed as Homo sapiens) |  | (0.33) fold | 9 | 3 | (10.00) fold | 1 | 10 |  |  |  |  |  |  |
| miR-3690 (ACCUGGACCCAGCGUAGACAAAG; chemistry not fully specified; listed as Homo sapiens) |  |  | 0 | 0 | 0.00 fold | 1 | 0 |  |  |  |  |  |  |
| miR-4435 (AUGGCCAGAGCUCACACAGAGG; chemistry not fully specified; listed as Homo sapiens) |  |  |  |  |  |  |  | 2.38 fold | 28 | 14 | 46 | 100 | 1.41 |
| miR-4467 (UGGCGGCGGUAGUUAUGGGCUU; chemistry not fully specified; listed as Homo sapiens) |  |  |  |  |  |  |  | (1.00) fold | 6 | 6 | 1 | 12 | 8.00 |
| miR-4754 (AUGCGGACCUGGGUUAGCGGAGU; chemistry not fully specified; listed as Homo sapiens) |  | (1.33) fold | 3 | 4 | 0.00 fold | 4 | 0 |  |  |  |  |  |  |
